For orientation: IC50 means the concentration needed to halve the response being measured.

Experimental findings from patent publication US20230303552A1, “ARYLSULFONYL DERIVATIVES AND THEIR USE AS MUSCARINIC ACETYLCHOLINE RECEPTOR M5 INHIBITORS” (Vanderbilt University, priority 2020, published 2023) are described below.

The test has as its target T1, human M5 receptors (hM5) (Homo sapiens, UniProt P08912).
T1 construct: expressed in transfected cells
T1 sequence (P08912 1-532): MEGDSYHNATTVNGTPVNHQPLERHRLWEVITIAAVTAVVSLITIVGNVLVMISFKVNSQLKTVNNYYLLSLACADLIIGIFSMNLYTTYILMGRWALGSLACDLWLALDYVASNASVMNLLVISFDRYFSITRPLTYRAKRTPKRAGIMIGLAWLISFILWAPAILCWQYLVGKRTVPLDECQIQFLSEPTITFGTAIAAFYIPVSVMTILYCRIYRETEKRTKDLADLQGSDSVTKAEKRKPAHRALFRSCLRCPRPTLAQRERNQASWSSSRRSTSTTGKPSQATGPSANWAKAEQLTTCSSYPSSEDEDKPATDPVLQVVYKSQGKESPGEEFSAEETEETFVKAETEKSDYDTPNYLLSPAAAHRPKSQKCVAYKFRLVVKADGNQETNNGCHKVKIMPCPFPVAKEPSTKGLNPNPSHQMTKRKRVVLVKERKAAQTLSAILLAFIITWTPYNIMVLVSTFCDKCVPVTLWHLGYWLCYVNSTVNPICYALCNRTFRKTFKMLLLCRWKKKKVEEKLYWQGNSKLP
Briefly: Cell-based functional calcium mobilization assay of mAChR M5 activity (inhibition of EC80 acetylcholine response) in CHO cells. The following applies: CHO cells stably expressing hM5; for IC50: calcium flux (Fluo-4), EC80 acetylcholine addition; for EC80 MIN: minimum of EC80 acetylcholine response, normalized to maximum acetylcholine response. Summed up: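 CHO cells stably expressing human M5, loaded with Fluo-4 AM in HBSS/20 mM HEPES/2.5 mM probenecid pH 7.4. Compound added 140 s before acetylcholine EC20, then EC80 added 125 s later. Calcium flux normalized to maximal acetylcholine response; IC50 from ten-point curves in the EC80 window.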
(In general: Calcium flux is commonly read through the fluorescence of an indicator in the cells.)

Turning to `O=C(Nc1ccc2scnc2c1)C1CN(S(=O)(=O)c2ccc3c(c2)CCO3)C1` [Compound 16, N-(benzo[d]thiazol-5-yl)-1-((2,3-dihydrobenzofuran-5-yl)sulfonyl)azetidine-3-carboxamide], the IC50 was found to be 1780 nM and the “EC80 MIN” value was 2%.

`Cc1noc(C)c1S(=O)(=O)N1CCC(C(=O)Nc2ccc3scnc3c2)CC1` [Compound 17, N-(benzo[d]thiazol-5-yl)-1-((3.5-dimcthylisoxazol-4-yl)sulfonyl)piperidine-4-carboxamide]: the IC50 stood at 766 nM and the “EC80 MIN” value is reported as 3%.

With `O=C(Nc1ccc2scnc2c1)C1CCN(S(=O)(=O)c2cccnc2)CC1` [Compound 18, N-(benzo[d]thiazol-5-yl)-1-(pyridin-3-ylsulfonyl)piperidine-4-carboxamide], the IC50 came to 56 nM and the “EC80 MIN” value is recorded as 2%.

In the case of `Cc1nc(C(F)(F)F)c(S(=O)(=O)N2CCC(C(=O)Nc3ccc4scnc4c3)CC2)s1` [Compound 19, N-(benzo[d]thiazol-5-yl)-1-((2-methyl-4-(trifluoromcthyl)thiazol-5-yl)sulfonyl)piperidine-4-carboxamide], the IC50 amounted to 3130 nM and the “EC80 MIN” value came out at 19%.

As for `Cn1cnc(S(=O)(=O)N2CCC(C(=O)Nc3ccc4scnc4c3)CC2)c1` [Compound 20, N-(benzo[d]thiazol-5-yl)-1-((1-methyl-1H-imidazol-4-yl)sulfonyl)piperidine-4-carboxamide], the IC50 is more than 10000 nM and the “EC80 MIN” value worked out at 49%.

Regarding `O=C(Nc1ccc2scnc2c1)C1CCN(S(=O)(=O)c2cccc3nsnc23)CC1` [Compound 21, 1-(benzo[c][1,2,5]thiadiazol-4-ylsulfonyl)-N-(benzo[d]thiazol-5-yl)piperidine-4-carboxamide], the IC50 came to 434 nM and the “EC80 MIN” value is 3%.

Turning to `CC1(C(=O)Nc2ccc3scnc3c2)CN(S(=O)(=O)c2ccc3c(c2)CCO3)C1` [Compound 22, N-(benzo[d]thiazol-5-yl)-1-((2,3-dihydrobenzofuran-5-yl)sulfonyl)-3-methylazetidine-3-carboxamide], the half-maximal inhibitory concentration (IC50) was more than 10000 nM and the “EC80 MIN” value came to 43%.

`O=C(Nc1ccc2scnc2c1)[C@@H]1CCN(S(=O)(=O)c2ccc3c(c2)CCO3)C1` [Compound 24, (R)-N-(benzo[d]thiazol-5-yl)-1-((2,3-dihydrobenzofuran-5-yl)sulfonyl)pyrrolidine-3-carboxamide]: the half-inhibitory concentration (IC50) turned out to be 32 nM and the “EC80 MIN” value is listed as 2%.

As to `Cn1cnc2cc(S(=O)(=O)N3CCC(C(=O)Nc4ccc5scnc5c4)CC3)ccc21` [Compound 27, N-(benzo[d]thiazol-5-yl)-1-((1-methyl-1H-benzo[d]imidazol-5-yl)sulfonyl)piperidine-4-carboxamide], the IC50 was more than 10000 nM and the “EC80 MIN” value turned out to be 42%.

For the compound `Cn1nnc2cc(S(=O)(=O)N3CCC(C(=O)Nc4ccc5scnc5c4)CC3)ccc21` [Compound 28, N-(benzo[d]thiazol-5-yl)-1-((1-methyl-1H-benzo[d][1,2,3]triazol-5-yl)sulfonyl)piperidine-4-carboxamide], the IC50 was more than 10000 nM and the “EC80 MIN” value worked out at 9%.

`O=C(Nc1ccc2scnc2c1)C1CCN(S(=O)(=O)c2ccc3c(c2)OC(F)(F)O3)CC1` [Compound 29, N-(benzo[d]thiazol-5-yl)-1-((2.2-difluorobenzo[d][1,3]dioxol-5-yl)sulfonyl)piperidine-4-carboxamide]: the IC50 was more than 10000 nM and the “EC80 MIN” value was determined as 60%.

In the case of `O=C(Nc1ccc2scnc2c1)C1CCN(S(=O)(=O)c2cccc(OC(F)(F)F)c2)CC1` [Compound 30, N-(benzo[d]thiazol-5-yl)-1-((3-(trifluoromethoxy)phenyl)sulfonyl)piperidine-4-carboxamide], the IC50 was more than 10000 nM and the “EC80 MIN” value is recorded as 57%.

`Cc1cccc(S(=O)(=O)N2CCC(C(=O)Nc3ccc4scnc4c3)CC2)c1` [Compound 31, N-(benzo[d]thiazol-5-yl)-1-(m-tolylsulfonyl)piperidine-4-carboxamide]: the IC50 is 9160 nM and the “EC80 MIN” value was found to be 5%.

For the compound `O=C(Nc1ccc2scnc2c1)C1CCN(S(=O)(=O)c2ccc(F)c(F)c2)CC1` [Compound 32, N-(benzo[d]thiazol-5-yl)-1-((3,4-difluorophenyl)sulfonyl)pip eridine-4-carboxamide], the IC50 is 1930 nM and the “EC80 MIN” value was 3%.

Consider `Cc1ccccc1S(=O)(=O)N1CCC(C(=O)Nc2ccc3scnc3c2)CC1` [Compound 33, N-(benzo[d]thiazol-5-yl)-1-(o-tolylsulfonyl)piperidine-4-carboxamide], for which the IC50 was more than 10000 nM and the “EC80 MIN” value is 6%.

Regarding `COc1cccc(S(=O)(=O)N2CCC(C(=O)Nc3ccc4scnc4c3)CC2)c1` [Compound 34, N-(benzo[d]thiazol-5-yl)-1-((3-methoxyphenyl)sulfonyl)pi pendine-4-carboxamide], the IC50 is more than 10000 nM and the “EC80 MIN” value stood at 18%.

For `Cc1cc(S(=O)(=O)N2CCC(C(=O)Nc3ccc4scnc4c3)CC2)cnc1Cl` [Compound 35, N-(benzo[d]thiazol-5-yl)-1-((6-chloro-5-methylpyridin-3-yl)sulfonyl)piperidine-4-carboxamide], the IC50 turned out to be 83 nM and the “EC80 MIN” value is listed as 3%.

`Cn1ncc2cc(S(=O)(=O)N3CCC(C(=O)Nc4ccc5scnc5c4)CC3)cnc21` [Compound 36, N-(benzo[d]thiazol-5-yl)-1-((1-methyl-1H-pyrazolo[3,4-b]pyridin-5-yl)sulfonyl)piperidine-4-carboxamide]: the IC50 was more than 10000 nM and the “EC80 MIN” value is 40%.

As to `Cc1noc2ncc(S(=O)(=O)N3CCC(C(=O)Nc4ccc5scnc5c4)CC3)cc12` [Compound 37, N-(benzo[d]thiazol-5-yl)-1-((3-methylisoxazolo[5,4-b]pyridin-5-yl)sulfonyl)piperidine-4-carboxamide], the IC50 is more than 10000 nM and the “EC80 MIN” value came to 60%.

As to `O=C(Nc1ccc2scnc2c1)[C@@H]1CCN(S(=O)(=O)c2cccnc2)C1` [Compound 39, (R)-N-(benzo[d]thiazol-5-yl)-1-(pyridin-3-ylsulfonyl)pyrrolidine-3-carboxamide], the IC50 is more than 10000 nM and the “EC80 MIN” value is 27%.

Turning to `O=C(Nc1ccc2scnc2c1)C1CCN(S(=O)(=O)c2cc3c(cc2F)OCC3)CC1` [Compound 41, N-(benzo[d]thiazol-5-yl)-1-((6-fluoro-2,3-dihydrobenzofuran-5-yl)sulfonyl)piperidine-4-carboxamide], the IC50 was 46 nM and the “EC80 MIN” value stood at 2%.

In the case of `O=C(Nc1ccc2scnc2c1)[C@@H]1CCN(S(=O)(=O)c2cc3c(cc2F)OCC3)C1` [Compound 42, (R)-N-(benz[d]thiazol-5-yl)-1-((6-fluoro-2,3-dihydrobenzofuran-5-yl)sulfonyl)pyrrolidine-3-carboxamide], the IC50 was 39 nM and the “EC80 MIN” value turned out to be 2%.

For `O=C(Nc1ccc2scnc2c1)C1CCN(S(=O)(=O)c2cccc3ncccc23)CC1` [Compound 46, N-(benzo[d]thiazol-5-yl)-1-(quinolin-5-ylsulfonyl)piperidine-4-carboxamide], the IC50 was more than 10000 nM and the “EC80 MIN” value amounted to 37%.

Turning to `Cc1nc2ccc(S(=O)(=O)N3CCC(C(=O)Nc4ccc5scnc5c4)CC3)cc2s1` [Compound 47], the IC50 was more than 10000 nM and the “EC80 MIN” value is recorded as 47%.

On to `O=C(Nc1ccc2scnc2c1)C1CCN(S(=O)(=O)c2ccc3c(c2)OCCO3)CC1` [Compound 48, N-(benzo[d]thiazol-5-yl)-1-((2.3-dihydrobenzo[b][1,4]dioxin-6-yl)sulfonyl)piperidine-4-carboxamide], for which the IC50 is 1790 nM and the “EC80 MIN” value stood at 5%.

For `Cc1cc2c(cc1S(=O)(=O)N1CCC(C(=O)Nc3ccc4scnc4c3)CC1)OCO2` [Compound 49, N-(benzo[d]thiazol-5-yl)-1-((6-methylbenzo[d][1,3]dioxol-5-yl)sulfonyl)pipcridinc-4-carboxamide], the IC50 is more than 10000 nM and the “EC80 MIN” value turned out to be 8%.

Turning to `O=C(Nc1ccc2scnc2c1)C1CCN(S(=O)(=O)c2ccc3c(c2)CCCO3)CC1` [Compound 50, N-(benzo[d]thiazol-5-yl)-1-(chroman-6-ylsulfonyl)pipcridinc-4-carboxamide], the IC50 was determined as 1850 nM and the “EC80 MIN” value was 4%.

On to `N#Cc1cccc(S(=O)(=O)N2CCC(C(=O)Nc3ccc4scnc4c3)CC2)c1` [Compound 51, N-(benzo[d]thiazol-5-yl)-1-((3-cyanophenyl)sulfonyl)piperi dine4-carboxamide], for which the IC50 amounted to 3530 nM and the “EC80 MIN” value came to 38%.

As to `COc1ccccc1S(=O)(=O)N1CCC(C(=O)Nc2ccc3scnc3c2)CC1` [Compound 52, N-(benzo[d]thiazol-5-yl)-1-((2-methoxyphenyl)sulfonyl)pi peridine-4-carboxamide], the IC50 is more than 10000 nM and the “EC80 MIN” value was 24%.
